pEC50: −log10 of the molar value. Several values for one entry are separate records, joined by “and”; a condition that tells them apart may be missing. Equal values may be shown once. Read-outs that look alike come from different tables or passages of the source.
Legend:
AMPA receptors [1] = assay: AMPA ES Cell FLIPR Screen, G7330A (single dose % effect); type: cell-based, murine; details: Dose 32.0 uM; mean (range and n in cells below); ES cell-derived neurons, 32 uM AMPA challenge; negative control AMPA alone, positive control AMPA plus cyclothiazide
Description: (§1) The murine ES cell line used was E14-Sx1-16C, which has a targeted mutation in the Sox1 gene, a neuroectodermal marker, that offers G418 resistance when the Sox1 gene is expressed (Stem Cell Sciences). ES cells were maintained undifferentiated as previously described (Roach). […] ES cells were plated on gelatin-coated dishes (BD Biosciences), the media was changed daily and the cells were dissociated with 0.05% Trypsin EDTA (Invitrogen) every other day.
(§2) Embryoid Body Formation: Prior to embryoid body (EB) formation the ES cells were weaned from FBS onto Knockout Serum Replacement (KSR) (Invitrogen). To form EBs, ES cells were dissociated into a single cell suspension then 3×10^6 cells were plated in bacteriology dishes (Nunc 4014) and grown as a suspension culture in NeuroEB-I medium that consisted of Knockout™ D-MEM (Invitrogen), supplemented with 10% KSR (Invitrogen), 0.2 mM L-Glutamine (Invitrogen), 0.1 mM MEM non-essential amino acids (Invitrogen), 30 μg/ml Gentamicin (Invitrogen), 1000 u/ml ESGRO (Chemicon), 0.1 mM 2-Mercaptoethanl (Sigma) and 150 ng/ml Transferrin (Invitrogen). The plates were put on a Stovall Belly Button shaker in an atmospheric oxygen incubator. The media was changed on day 2 of EB formation with NeuroEB-I and on day 4 with NeuroEB-II (NeuroEB-I plus 1 μg/ml mNoggin [R&D Systems]).
(§3) Neuronal Precursor Selection and Expansion: On day 5 of EB formation, EBs were dissociated with 0.05% Trypsin EDTA, and 4×10^6 cells/100 mm dish were plated on Laminin coated tissue culture dishes in NeuroII-G418 medium that consisted of a base medium of a 1:1 mixture of D-MEM/F12 supplemented with N2 supplements and NeuroBasal Medium supplemented with B27 supplement and 0.1 mM L-Glutamine (all from Invitrogen). The base medium was then supplemented with 10 ng/ml bFGF (Invitrogen), 1 μg/ml mNoggin, 500 ng/ml SHH-N, 100 ng/ml FGF-8b (R&D Systems), 1 μg/ml Laminin and 200 μg/ml G418 (Invitrogen) for selection of neuronal precursors expressing Sox-1. The plates were put in an incubator that contained 2% Oxygen and were maintained in these conditions. During the 6-day selection period, the NeuroII media was changed daily. On day 6, the surviving neuronal precursor foci were dissociated with 0.05% Trypsin EDTA and the cells were plated at a density of 1.5×10^6 cells/100 mm Laminin coated dish in NeuroII-G418 medium. The cells were dissociated every other day for expansion, and prepared for Cryopreservation at passage 3 or 4. The cryopreservation medium contained 50% KSR, 10% Dimethyl Sulfoxide (DMSO) (Sigma) and 40% NeuroI-G418I medium. Neuronas precursors were crypreserved at a concentration of 4×10^6cells/ml and 1 ml/cryovial in a controlled rate freezer overnight then transferred to an ultra-low freezer or liquid nitrogen for long-term storage,
(§4) Neuronal Differentiation: Cryopreserved ES cell-derived neuronal precursors were thawed by the rapid thaw method in a 37-degree water-bath. The cells were transferred from the cryovial to a 100 mm Laminin coated tissue culture dish that already contained NeuroII-G418 that had been equilibrated in a 2% Oxygen incubator. The media was changed with fresh NeuroII-G418 the next day. The cells were dissociated every other day as described above for expansion to generate enough cells to plate for the screen. For the screen, the cells were plated into 384-well poly-d-lysine coated tissue culture dishes (BD Biosciences) by the automated SelecT at a cell density of 6K cells/well in differentiation medium NeuroIII that contained a 4:1 ratio of the NeuroBasalMedium/B27:D-MEM/F12/N2 supplemented with 1 μM cAMP (Sigma), 200 μM Ascorbic Acid (Sigma), 1 μg/ml Laminin (Invitrogen) and 10 ng/ml BDNF (R&D Systems). The plates were put in an incubator with 2% Oxygen and allowed to complete the differentiation process for 7 days. The cells could then be used over a 5-day period for the high throughput screen.
(§5) Procedure for AMPA ES Cell FLIPR Screen […]

AMPA receptors [2] = assay: AMPA ES Cell FLIPR Screen, G7330B (EC50 and % effect); type: cell-based, murine; details: for pEC50: ES cell-derived neurons, 32 uM AMPA challenge
Description: as §1, §2, §3, §4, §5

[3] = Dose 32.0 uM, individual determinations
[4] = individual determinations, read-out: G7330B (U): EC50
[5] = mean of individual determinations (range and n in cells below), read-out: G7330B mean EC50
[6] = Dose 31.6 uM, individual determinations

Row | SMILES | pEC50 (AMPA receptors [2]; [4]) | pEC50 (AMPA receptors [2]; [5]) | G7330A: % Effect (AMPA receptors [1]) | G7330B (U): % Effect (AMPA receptors [2]; [3]) | G7330B (U): % Effect (AMPA receptors [2]; [6])
1 | CC(C)S(=O)(=O)N[C@@H]1CN(C)CC[C@@H]1c1ccc(-c2ccccc2)cc1 (relative stereo) [Example 7, propane-2-sulfonic acid (cis-4-biphenyl-4-yl-1-methyl-piperidin-3-yl)-amide] | – | – | −0.867% | – | −0.0209% and −0.612% and −1.41% and −1.42%
2 | CCCS(=O)(=O)N[C@@H]1CNCC[C@@H]1c1ccc(-c2ccccc2)cc1 (relative stereo) [Example 12, Propane-1-sulfonic acid(cis-4-biphenyl-4-yl-piperidin-3-yl)-amide] | – | – | 0.110% | 0.428% and −0.204% and −0.02059% and 0.243% | –
3 | O=S(=O)(CC(F)(F)F)NC1CNCCC1c1ccc(-c2ccccc2)cc1 (stereo not drawn) [Example 13, 2,2,2-Trifluoro-ethanesulfonic acid(trans-4-biphenyl-4-yl-piperidin-3-yl)-amide] | < 4.49 | < 4.49 | 43.7% | 27.9% and 46.2% and 59.8% and 48.9% and 30.2% and 28.1% | –
4 | CCCS(=O)(=O)N[C@@H]1CNCC[C@H]1c1ccc(-c2ccccc2)cc1 (relative stereo) [Example 10, Propane-1-sulfonic acid (trans-4-biphenyl-4-yl-piperidin-3-yl)-amide] | < 4.49 | < 4.49 | 11.2% | 23.4% and 19.5% and 18.5% and 5.64% and 6.55% and 7.27% | –
5 | O=S(=O)(NC1CNCCC1c1ccc(-c2ccccc2)cc1)C1CC1 (stereo not drawn) [Example 14, Cyclopropanesulfonic acid(trans-4-biphenyl-4-yl-piperidin-3-yl)-amide] | < 4.49 | < 4.49 | 3.36% | 4.61% and 2.97% and 3.26% and 0.0952% and 0.150% and 1.02% | –
6 | CCS(=O)(=O)N[C@@H]1CNCC[C@@H]1c1ccc(-c2ccccc2)cc1 (relative stereo) [Example 11, Ethanesulfonic acid (cis-4-biphenyl-4-yl-piperidin-3-yl)-amide] | – | – | 2.34% | 1.55% and 3.14% and 2.25% and 2.45% | –

More lines, main results first:

Row | pEC50 (AMPA receptors [2]; [4]) | pEC50 (AMPA receptors [2]; [5]) | SMILES | G7330A: % Effect (AMPA receptors [1]) | G7330B (U): % Effect (AMPA receptors [2]; [3]) | G7330B (U): % Effect (AMPA receptors [2]; [6])
7 | 4.77 and 4.95 and 4.90 | 4.88 | CC(C)S(=O)(=O)N[C@@H]1CNCC[C@H]1c1ccc(-c2ccccc2)cc1 (relative stereo) [Example 1, propane-2-sulfonic acid (trans-4-biphenyl-4-yl-piperidin-3-yl)-amide] | 87.1% | 86.8% and 115% and 132% and 92.5% and 85.0% | –
8 | < 4.49 | < 4.49 | CCS(=O)(=O)N[C@@H]1CNCC[C@H]1c1ccc(-c2ccccc2)cc1 (relative stereo) [Example 9, Ethanesulfonic acid (trans-4-biphenyl-4-yl-piperidin-3-yl)-amide] | 59.1% | 73.4% and 60.8% and 66.9% | –
9 | < 4.49 | < 4.49 | CS(=O)(=O)N[C@@H]1CNCC[C@H]1c1ccc(-c2ccccc2)cc1 (relative stereo) [Example 8, N-(trans-4-Biphenyl-4-yl-piperidin-3-yl)-methanesulfonamide] | 56.3% | 62.1% and 46.9% and 54.7% and 34.7% and 36.6% and 38.0% | –
10 | 5.35 and 5.22 and 5.42 and 5.09 | 5.27 | CC(C)S(=O)(=O)N[C@@H]1CN(C)CC[C@H]1c1ccc(-c2ccccc2)cc1 (relative stereo) [Example 2, propane-2-sulfonic acid (trans-4-biphenyl-4-yl-1-methyl-piperidin-3-yl)-amide] | 112% | 127% and 141% and 134% and 142% and 151% and 173% and 180% | –
11 | 5.05 | 5.05 | CC(C)S(=O)(=O)NC1COCCC1c1ccc(-c2ccc(C#N)cc2)cc1 (stereo not drawn) [Example 35, Propane-2-sulfonic acid[trans-4-(4′-cyano-biphenyl-4-yl)-tetrahydro-pyran-3-yl]-amide] | – | – | 146% and 155% and 152%

From patent US20100035865A1, “Sulfonamides and Pharmaceutical Compositions Thereof” (PFIZER INC, priority 2007, published 2010)
